# From patent US11203576B2, “Aurora kinase and Janus kinase inhibitors for prevention of graft versus host disease” (H. LEE MOFFITT CANCER CENTER AND RESEARCH INSTITUTE, INC., priority 2016, dated 2021)
# Assays:
# [1] = tested on: T-cells allostimulated by dendritic cells (DC); test: Allogeneic mixed leukocyte reaction (alloMLR), T-cell proliferation; assay type: cell-based, human
# Description: Bulk donor T-cells were allostimulated with allogeneic DCs (DC:T-cell ratio of 1:30) as previously described (OneBlood, Tampa, Fla.)(15, 16, 20). […] As indicated, alloMLRs consisting of Treg depleted, naïve CD4^+ T-cells (Miltenyi Biotec Inc, San Diego, Calif.) were treated with a combination of ARL67156 (CD39 inhibitor, 125 μM, Sigma), AJI, or DMSO on day 0 to study the role of CD39 and ATP in this system. T-cell proliferation was measured on day 5 by a colorimetric assay (CellTiter 96 Aqueous One Solution Cell Proliferation Assay [MTS]; or CellTiter Blue, Promega, Madison, Wis.). Absorbance/optical density (OD) was analyzed at 490 nm or 590 nm, respectively. Proliferation (%)=(OD treated alloMLR−OD T-cells alone)/(OD DMSO alloMLR−OD T-cells alone)×100.
# [2] = tested on: H3 Ser10 (target of Aurora); test: H3 Ser10 phosphorylation in DC-allostimulated T-cells (flow cytometry); assay type: cell-based, human; conditions: 5-day allogeneic DC stimulation; AJI 750 nM, alisertib 1.75 μM, TG101348 350 nM
# Description: After 5 days, T cells were then harvested and directly fixed (Cytofix, BD Biosciences) for 10 min at 37° C. After washing with phosphate-buffered saline, the T cells were permeabilized with icecold methanol (90%, v/v) for at least 20 min at -20° C. The cells were stained for expression of CD3 and pH[…].
# STAT3 (target of JAK2) = test: STAT3 phosphorylation in T-cells (flow cytometry); assay type: cell-based, human; conditions: in vitro, DC- or IL-6-stimulated, vs DMSO
# Description: IL-6-induced pSTAT3 or IL-2-induced pSTAT5 (Y694) was measured by flow cytometry.
# U937 cells = test: CTL generation and tumor lysis assays; assay type: cell-based, human; conditions: NSG mice, 50 mg/kg daily, irradiated U937 on days 0 and +7, vs vehicle; listed as AJI-100
# Description: NSG mice were transplanted with human PBMCs as described above, and treated with either AJI-100 (50 mg/kg daily) or vehicle control. Additionally, recipient mice received an inoculum of irradiated U937 cells (ATCC, 10^7/mouse) on days 0 and +7. Mice were euthanized between days +10 to +12, spleens were harvested, and human CD8^+ T-cells were isolated by magnetic bead separation. Fresh U937 target cells were labeled with Calcein-AM for 30 minutes, washed, and then cultured with the purified CD8^+ T-cells at varying effector to target ratios for 4 hours at 37° C. No additional drugs were added during this final culture. […] Percent lysis was calculated as follows: [(test fluorescence−spontaneous fluorescence)/(maximum fluorescence−spontaneous fluorescence)]×100.
# [3] = tested on: 5′ AMP activated protein kinase (AMPK); test: Kinase target screen, panel of 140 kinases; assay type: biochemical
# Description: (§1) Allogeneic mixed leukocyte reactions (alloMLRs) are standard assays used to assess human T cell proliferation against polyclonal or antigen-specific stimuli. In alloMLRs consisting of human T cells and allogeneicmonocyte-derived dendritic cells (DCs), the JAK2 inhibitor TG101348 reduced alloreactive T cell proliferation at concentrations of 350 nM and greater as previously reported (FIG. 9A). […] Synergistic suppression of T cells allostimulated by DCs was achieved when TG101348 and alisertib were added together at a ratio of 1:5, respectively, with a calculated combination index (CI) of <1 using the Chou-Talalay method (FIG. 9A). […] The chemical analogs AJI-214 and AJI-100 were designed and synthesized at the Moffitt Cancer Center and shown to inhibit Aurora kinase A and JAK2 with similar potency. […] Because AJI-100 is tolerated in mouse models, a kinase target screen was performed on AJI-100 to verify its activity against Aurora kinase A and JAK2 among a panel of 140 kinases.
# Aurora kinase A = target: T1, Aurora kinase A (Homo sapiens, UniProt O14965); test: Kinase target screen, panel of 140 kinases; assay type: biochemical
# T1 sequence (O14965 1-403): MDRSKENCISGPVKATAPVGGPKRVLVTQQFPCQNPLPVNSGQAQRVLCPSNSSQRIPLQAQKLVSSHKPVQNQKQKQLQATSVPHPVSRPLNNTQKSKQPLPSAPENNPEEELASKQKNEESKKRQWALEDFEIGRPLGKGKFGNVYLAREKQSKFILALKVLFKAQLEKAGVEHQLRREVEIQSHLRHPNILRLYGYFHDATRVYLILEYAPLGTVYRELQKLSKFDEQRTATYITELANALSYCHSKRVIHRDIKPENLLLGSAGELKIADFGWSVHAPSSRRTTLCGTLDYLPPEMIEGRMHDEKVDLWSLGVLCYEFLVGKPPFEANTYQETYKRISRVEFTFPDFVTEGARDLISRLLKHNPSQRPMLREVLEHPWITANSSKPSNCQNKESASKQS
# Description: as §1
# Aurora kinase B = Aurora kinase B (Homo sapiens, UniProt Q96GD4); test: Kinase target screen, panel of 140 kinases; assay type: biochemical; conditions: compared with alisertib
# Aurora kinase B, sequence (Q96GD4 whole entry): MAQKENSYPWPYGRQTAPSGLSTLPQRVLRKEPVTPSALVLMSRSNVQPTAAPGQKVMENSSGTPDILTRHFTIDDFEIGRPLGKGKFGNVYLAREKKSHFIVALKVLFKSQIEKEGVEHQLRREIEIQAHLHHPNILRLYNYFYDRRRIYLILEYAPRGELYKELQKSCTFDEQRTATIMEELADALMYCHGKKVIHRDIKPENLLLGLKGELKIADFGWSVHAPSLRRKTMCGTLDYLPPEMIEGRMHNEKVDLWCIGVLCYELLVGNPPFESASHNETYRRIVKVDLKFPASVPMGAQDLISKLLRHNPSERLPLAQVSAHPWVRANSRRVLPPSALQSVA
# Description: as §1
# JAK2 = JAK2 (Homo sapiens, UniProt O60674); test: Kinase target screen, panel of 140 kinases; assay type: biochemical
# JAK2, sequence (O60674 whole entry): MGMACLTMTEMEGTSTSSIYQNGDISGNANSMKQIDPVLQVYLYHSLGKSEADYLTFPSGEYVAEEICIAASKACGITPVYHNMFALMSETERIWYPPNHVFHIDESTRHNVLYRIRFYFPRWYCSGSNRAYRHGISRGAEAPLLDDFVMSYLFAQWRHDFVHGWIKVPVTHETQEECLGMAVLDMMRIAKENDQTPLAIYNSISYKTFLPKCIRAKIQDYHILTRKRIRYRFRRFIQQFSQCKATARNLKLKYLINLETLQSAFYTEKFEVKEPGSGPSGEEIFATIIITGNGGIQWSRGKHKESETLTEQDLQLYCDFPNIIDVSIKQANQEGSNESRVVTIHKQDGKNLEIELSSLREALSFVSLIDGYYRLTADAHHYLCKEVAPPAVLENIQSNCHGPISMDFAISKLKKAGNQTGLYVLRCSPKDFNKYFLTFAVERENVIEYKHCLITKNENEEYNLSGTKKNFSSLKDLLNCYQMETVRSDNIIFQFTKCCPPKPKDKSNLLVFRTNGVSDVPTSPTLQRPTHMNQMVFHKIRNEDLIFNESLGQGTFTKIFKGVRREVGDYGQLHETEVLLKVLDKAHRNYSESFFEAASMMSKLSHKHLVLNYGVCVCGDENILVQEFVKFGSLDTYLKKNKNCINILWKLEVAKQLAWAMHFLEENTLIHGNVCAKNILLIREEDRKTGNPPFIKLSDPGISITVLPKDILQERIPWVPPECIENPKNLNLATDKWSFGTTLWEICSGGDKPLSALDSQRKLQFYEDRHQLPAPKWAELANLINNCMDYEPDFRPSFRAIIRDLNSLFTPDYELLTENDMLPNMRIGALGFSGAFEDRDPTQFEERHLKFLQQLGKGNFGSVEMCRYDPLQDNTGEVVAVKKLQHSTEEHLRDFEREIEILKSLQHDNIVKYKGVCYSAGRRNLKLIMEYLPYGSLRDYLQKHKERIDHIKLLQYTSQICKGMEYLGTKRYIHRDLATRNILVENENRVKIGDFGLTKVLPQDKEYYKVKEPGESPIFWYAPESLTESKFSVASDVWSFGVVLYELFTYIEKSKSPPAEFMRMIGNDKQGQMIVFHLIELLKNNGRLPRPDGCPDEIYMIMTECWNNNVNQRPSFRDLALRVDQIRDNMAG
# Description: as §1
# [4] = tested on: human skin graft rejection by allogeneic PBMC; test: Human skin xenograft rejection in NSG mice; assay type: in vivo; conditions: 50 mg/kg daily i.p., + PBMCs, day +21
# Description: Using the nondiagnostic mastectomy skin from consenting donors, a 1×1 cm skin graft was transplanted onto immunodeficient NSG mice dorsally. After 30 days of healing, 5×10^6 peripheral blood mononuclear cells (PBMC) from an HLA-disparate random donor was given by i.p. injection. A cohort of mice only received a skin graft without PBMCs, as negative rejection controls. The transplanted mice were treated with AJI-100 (50 mg/kg), a dual JAK2/Aurora A kinase inhibitor, or vehicle daily by i.p. injection. Mice were humanely euthanized on day +21 to assess human anti-human skin rejection pathology. […] Conversely, skin grafts from the mice who received Vehicle+PBMCs show diffuse lymphocytic infiltration of the dermis with exocytosis, a disrupted dermal-epidermal junction, and hyperkeratosis (grade III, FIG. 15B).
# Solubility = assay type: physicochemical; conditions: relative to the ortho-chloro analogue
structure (smiles),measurement,setting,value
"NC(=O)c1ccc(Nc2ncc(F)c(Nc3ccccc3)n2)cc1 [bisanilinopyrimidine (II), 5-Fluoro-N4-phenyl-N2-[4-(4-carboxamide)phenyl]pyrimidine-2,4-diamine]",IC50,"[1]; Homo sapiens, single agent added once on day 0, proliferation on day 5, DC:T-cell ratio 1:30, read-out: IC50, T-cell proliferation in alloMLR",200 nM
same,suppression of T cells in alloMLRs,"[1]; single agent, nanomolar concentrations, vs DMSO",significant suppression
same,phosphorylation of histone 3 serine 10 (pH3 Ser10) in T-cells,[2],reducing the phosphorylation
same,STAT3 (pSTAT3 Y705) phosphorylation in T-cells,STAT3 (target of JAK2),less STAT3 phosphorylation
same,STAT3 (pSTAT3 Y705) phosphorylation in T-cells,STAT3 (target of JAK2); listed as AJI-100,reducing the phosphorylation
same,in vivo generation of U937-specific CTL and killing of U937 targets,U937 cells,did not inhibit CTL generation
same,inhibition of AMPK,[3],inhibits
same,inhibition of Aurora kinase A in kinase panel,Aurora kinase A,among the top three kinases inhibited
same,ratio of Aurora kinase A to kinase B inhibition,Aurora kinase B,greater than alisertib
same,suppression of Aurora kinase B,Aurora kinase B,slightly more potent suppression of Aurora kinase B than alisertib
same,inhibition of JAK2 in kinase panel,JAK2,among the top three kinases inhibited
same,skin graft rejection grade (Bejarano scoring system),[4],grade I
same,solubility,Solubility,enhancing its solubility
